{"source": "PubChem BioAssay AID1963851", "about": "(Molecular Pharmacology Branch, DTP, NCI, 2024);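 also: spheroids exposed to compounds for seven days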;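 as to viability, T/C: 100% = DMSO vehicle control viability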", "system": "188146-221-R-J1-PDC complex spheroid viability", "experiment": "Anticancer human tumor 188146-221-R-J1-PDC patient-derived colon adenocarcinoma cell line growth inhibition [POLQ]", "settings": "for IC50: curve of first compound; for viability, T/C: stronger effect = lower value", "outline": "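PDC + HUVEC + MSC complex spheroids; POLQ inhibitors ± partner drugs; top conc. at/near clinical Cmax, else 10 microM (SN-38 1 microM), half-log dilutions; 37 degrees C, 5% CO2.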", "key": {"[1]": {"settings": "second compound 0.0316 µM, first compound 0.0316 µM"}, "[2]": {"settings": "second compound 0.0316 µM, first compound 0.1 µM"}, "[3]": {"settings": "second compound 0.0316 µM, first compound 0.316 µM"}, "[4]": {"settings": "second compound 0.0316 µM, first compound 1 µM"}, "[5]": {"settings": "second compound 0.0316 µM, first compound 3.16 µM"}, "[6]": {"settings": "second compound 0.0316 µM, first compound 10 µM"}, "[7]": {"settings": "second compound 0.1 µM, first compound 0.0316 µM"}, "[8]": {"settings": "second compound 0.1 µM, first compound 0.1 µM"}, "[9]": {"settings": "second compound 0.1 µM, first compound 0.316 µM"}, "[10]": {"settings": "second compound 0.1 µM, first compound 1 µM"}, "[11]": {"settings": "second compound 0.1 µM, first compound 3.16 µM"}, "[12]": {"settings": "second compound 0.1 µM, first compound 10 µM"}, "[13]": {"settings": "second compound 0.316 µM, first compound 0.0316 µM"}, "[14]": {"settings": "second compound 0.316 µM, first compound 0.1 µM"}, "[15]": {"settings": "second compound 0.316 µM, first compound 0.316 µM"}, "[16]": {"settings": "second compound 0.316 µM, first compound 1 µM"}, "[17]": {"settings": "second compound 0.316 µM, first compound 3.16 µM"}, "[18]": {"settings": "second compound 0.316 µM, first compound 10 µM"}, "[19]": {"settings": "second compound 1 µM, first compound 0.0316 µM"}, "[20]": {"settings": "second compound 1 µM, first compound 0.1 µM"}, "[21]": {"settings": "second compound 1 µM, first compound 0.316 µM"}, "[22]": {"settings": "second compound 1 µM, first compound 1 µM"}, "[23]": {"settings": "second compound 1 µM, first compound 3.16 µM"}, "[24]": {"settings": "second compound 1 µM, first compound 10 µM"}, "[25]": {"settings": "second compound 3.16 µM, first compound 0.0316 µM"}, "[26]": {"settings": "second compound 3.16 µM, first compound 0.1 µM"}, "[27]": {"settings": "second compound 3.16 µM, first compound 0.316 µM"}, "[28]": {"settings": "second compound 3.16 µM, first compound 1 µM"}, "[29]": {"settings": "second compound 3.16 µM, first compound 3.16 µM"}, "[30]": {"settings": "second compound 3.16 µM, first compound 10 µM"}, "[31]": {"settings": "second compound 10 µM, first compound 0.0316 µM"}, "[32]": {"settings": "second compound 10 µM, first compound 0.1 µM"}, "[33]": {"settings": "second compound 10 µM, first compound 0.316 µM"}, "[34]": {"settings": "second compound 10 µM, first compound 1 µM"}, "[35]": {"settings": "second compound 10 µM, first compound 3.16 µM"}, "[36]": {"settings": "second compound 10 µM, first compound 10 µM"}}}
{"smiles": "Nc1ccn(C2OC(CO)C(O)C2(F)F)c(=O)n1", "note": "(centres undefined) + COC1C(OC(N)=O)C(O)C(Oc2ccc3c(O)c(NC(=O)c4ccc(O)c(CC=C(C)C)c4)c(=O)oc3c2C)OC1(C)C", "values": [{"measurement": "IC50", "setting": "second compound 0.0316 µM", "result": "< 31.6", "unit": "nM"}, {"measurement": "IC50", "setting": "second compound 0.1 µM", "result": 32.1, "unit": "nM"}, {"measurement": "IC50", "setting": "second compound 0.316 µM", "result": "< 31.6", "unit": "nM"}, {"measurement": "IC50", "setting": "second compound 1 µM", "result": "< 31.6", "unit": "nM"}, {"measurement": "IC50", "setting": "second compound 3.16 µM", "result": "< 31.6", "unit": "nM"}, {"measurement": "IC50", "setting": "second compound 10 µM", "result": "< 31.6", "unit": "nM"}, {"measurement": "viability, T/C", "setting": "[1]", "result": 46.8, "unit": "%"}, {"measurement": "viability, T/C", "setting": "[2]", "result": 29.5, "unit": "%"}, {"measurement": "viability, T/C", "setting": "[3]", "result": 17.4, "unit": "%"}, {"measurement": "viability, T/C", "setting": "[4]", "result": 14.4, "unit": "%"}, {"measurement": "viability, T/C", "setting": "[5]", "result": 15.2, "unit": "%"}, {"measurement": "viability, T/C", "setting": "[6]", "result": 13.2, "unit": "%"}, {"measurement": "viability, T/C", "setting": "[7]", "result": 50.4, "unit": "%"}, {"measurement": "viability, T/C", "setting": "[8]", "result": 29.4, "unit": "%"}, {"measurement": "viability, T/C", "setting": "[9]", "result": 13.8, "unit": "%"}, {"measurement": "viability, T/C", "setting": "[10]", "result": 12.5, "unit": "%"}, {"measurement": "viability, T/C", "setting": "[11]", "result": 14.8, "unit": "%"}, {"measurement": "viability, T/C", "setting": "[12]", "result": 14.3, "unit": "%"}, {"measurement": "viability, T/C", "setting": "[13]", "result": 41.1, "unit": "%"}, {"measurement": "viability, T/C", "setting": "[14]", "result": 28.7, "unit": "%"}, {"measurement": "viability, T/C", "setting": "[15]", "result": 21.8, "unit": "%"}, {"measurement": "viability, T/C", "setting": "[16]", "result": 12.2, "unit": "%"}, {"measurement": "viability, T/C", "setting": "[17]", "result": 12, "unit": "%"}, {"measurement": "viability, T/C", "setting": "[18]", "result": 11, "unit": "%"}, {"measurement": "viability, T/C", "setting": "[19]", "result": 41.5, "unit": "%"}, {"measurement": "viability, T/C", "setting": "[20]", "result": 24.8, "unit": "%"}, {"measurement": "viability, T/C", "setting": "[21]", "result": 19.2, "unit": "%"}, {"measurement": "viability, T/C", "setting": "[22]", "result": 13.4, "unit": "%"}, {"measurement": "viability, T/C", "setting": "[23]", "result": 13.5, "unit": "%"}, {"measurement": "viability, T/C", "setting": "[24]", "result": 12.6, "unit": "%"}, {"measurement": "viability, T/C", "setting": "[25]", "result": 46.3, "unit": "%"}, {"measurement": "viability, T/C", "setting": "[26]", "result": 26.1, "unit": "%"}, {"measurement": "viability, T/C", "setting": "[27]", "result": 16.2, "unit": "%"}, {"measurement": "viability, T/C", "setting": "[28]", "result": 13.5, "unit": "%"}, {"measurement": "viability, T/C", "setting": "[29]", "result": 14, "unit": "%"}, {"measurement": "viability, T/C", "setting": "[30]", "result": 13.9, "unit": "%"}, {"measurement": "viability, T/C", "setting": "[31]", "result": 45.6, "unit": "%"}, {"measurement": "viability, T/C", "setting": "[32]", "result": 20.5, "unit": "%"}, {"measurement": "viability, T/C", "setting": "[33]", "result": 16.1, "unit": "%"}, {"measurement": "viability, T/C", "setting": "[34]", "result": 12.4, "unit": "%"}, {"measurement": "viability, T/C", "setting": "[35]", "result": 16.4, "unit": "%"}, {"measurement": "viability, T/C", "setting": "[36]", "result": 13.3, "unit": "%"}]}
{"smiles": "O=C(c1cc(Cc2n[nH]c(=O)c3ccccc23)ccc1F)N1CCN(C(=O)C2CC2)CC1", "note": "+ Nc1ccc(C#CCN(C(=O)Cc2ncc(C(F)(F)F)cc2C(F)(F)F)c2ccc(F)cc2)nn1", "values": [{"measurement": "IC50", "setting": "second compound 0.0316 µM", "result": "> 10000", "unit": "nM"}, {"measurement": "IC50", "setting": "second compound 0.1 µM", "result": "> 10000", "unit": "nM"}, {"measurement": "IC50", "setting": "second compound 0.316 µM", "result": "> 10000", "unit": "nM"}, {"measurement": "IC50", "setting": "second compound 1 µM", "result": "> 10000", "unit": "nM"}, {"measurement": "IC50", "setting": "second compound 3.16 µM", "result": "> 10000", "unit": "nM"}, {"measurement": "IC50", "setting": "second compound 10 µM", "result": "> 10000", "unit": "nM"}, {"measurement": "viability, T/C", "setting": "[1]", "result": 99.7, "unit": "%"}, {"measurement": "viability, T/C", "setting": "[2]", "result": 116, "unit": "%"}, {"measurement": "viability, T/C", "setting": "[3]", "result": 104, "unit": "%"}, {"measurement": "viability, T/C", "setting": "[4]", "result": 98.3, "unit": "%"}, {"measurement": "viability, T/C", "setting": "[5]", "result": 93.6, "unit": "%"}, {"measurement": "viability, T/C", "setting": "[6]", "result": 72.2, "unit": "%"}, {"measurement": "viability, T/C", "setting": "[7]", "result": 111, "unit": "%"}, {"measurement": "viability, T/C", "setting": "[8]", "result": 100, "unit": "%"}, {"measurement": "viability, T/C", "setting": "[9]", "result": 107, "unit": "%"}, {"measurement": "viability, T/C", "setting": "[10]", "result": 90.7, "unit": "%"}, {"measurement": "viability, T/C", "setting": "[11]", "result": 101, "unit": "%"}, {"measurement": "viability, T/C", "setting": "[12]", "result": 75, "unit": "%"}, {"measurement": "viability, T/C", "setting": "[13]", "result": 116, "unit": "%"}, {"measurement": "viability, T/C", "setting": "[14]", "result": 88.5, "unit": "%"}, {"measurement": "viability, T/C", "setting": "[15]", "result": 89.9, "unit": "%"}, {"measurement": "viability, T/C", "setting": "[16]", "result": 106, "unit": "%"}, {"measurement": "viability, T/C", "setting": "[17]", "result": 80.9, "unit": "%"}, {"measurement": "viability, T/C", "setting": "[18]", "result": 81.6, "unit": "%"}, {"measurement": "viability, T/C", "setting": "[19]", "result": 117, "unit": "%"}, {"measurement": "viability, T/C", "setting": "[20]", "result": 90.3, "unit": "%"}, {"measurement": "viability, T/C", "setting": "[21]", "result": 94.3, "unit": "%"}, {"measurement": "viability, T/C", "setting": "[22]", "result": 92.5, "unit": "%"}, {"measurement": "viability, T/C", "setting": "[23]", "result": 96, "unit": "%"}, {"measurement": "viability, T/C", "setting": "[24]", "result": 69.1, "unit": "%"}, {"measurement": "viability, T/C", "setting": "[25]", "result": 101, "unit": "%"}, {"measurement": "viability, T/C", "setting": "[26]", "result": 104, "unit": "%"}, {"measurement": "viability, T/C", "setting": "[27]", "result": 97, "unit": "%"}, {"measurement": "viability, T/C", "setting": "[28]", "result": 102, "unit": "%"}, {"measurement": "viability, T/C", "setting": "[29]", "result": 91.2, "unit": "%"}, {"measurement": "viability, T/C", "setting": "[30]", "result": 77.1, "unit": "%"}, {"measurement": "viability, T/C", "setting": "[31]", "result": 95.3, "unit": "%"}, {"measurement": "viability, T/C", "setting": "[32]", "result": 95.3, "unit": "%"}, {"measurement": "viability, T/C", "setting": "[33]", "result": 110, "unit": "%"}, {"measurement": "viability, T/C", "setting": "[34]", "result": 89.8, "unit": "%"}, {"measurement": "viability, T/C", "setting": "[35]", "result": 88.2, "unit": "%"}, {"measurement": "viability, T/C", "setting": "[36]", "result": 73, "unit": "%"}]}
